Article PMC8006935, “Study of Combinatorial Drug Synergy of Novel Acridone Derivatives With Temozolomide Using in-silico and in-vitro Methods in the Treatment of Drug-Resistant Glioma” (Frontiers in Oncology, 2021)
Like-named read-outs stand apart in the source and are kept apart here.

Key:
[1] = Sulforhodamine B assay, Vero control cells; format: cell-based; details: African green monkey, Vero cells (normal kidney epithelial cells), SRB, read-out: Vero cell Line CC50
Procedure: (§1) In order to test the growth inhibition potential of the TMZ and Acridone derivatives on Glioma, the U-87 (Uppsala 87) Glioma cell lines and T-98 (Temozolomide resistant) Glioma cell lines were treated with Temozolomide (TMZ) and Acridone derivatives AC2, AC7, and AC26. The African Green Monkey Kidney Vero cell lines were used as control for the study. The Vero cell lines were obtained from the National Center for Cell Sciences (NCCS), Pune, while the U-87 and T-98 cell lines were carried in the lab of Dr. GJ Peters, Cancer Center Amsterdam (CCA), VU University Medical Center, Amsterdam, Netherlands. The Mycoplasma testing was done by using the Universal Mycoplasma Detection Kit (ATCC® 30-1012K™) every 6 months. The Vero cell lines have been used as control as they are normal kidney epithelial cells and are non-cancerous in nature. The Vero cell lines have been routinely used for testing cytotoxicity of small molecules by various researchers ([22], [23]). Also, in our previous study, Vero cell lines have been used for testing safety and efficacy of Acridone derivatives for Lung, Cervical, and Breast Cancer studies ([13]).
(§2) Cell viability was found using the Sulforhodamine B (SRB) assay to measure the cellular protein content which provides better sensitivity in comparison to MTT assay ([24]). Moreover, as this method is dependent on the property of the SRB dye, it acts by binding to proteins under slightly acidic conditions and can be exposed to basic conditions for its extraction. The resulting amount of bound dye is then utilized as a proxy for cell mass ([25]). This cell mass can then be extrapolated to measure cell growth.
Glioma cells were cultured in Gibco (RPMI 1640) complemented with 10% fetal calf serum (Gibco). The cultures were then treated with trypsin-EDTA in order to detach/separate the cells from their culture flasks. The quickly proliferating cells were harvested, counted and plated at suitable concentrations in 96-well microplates. These microplates were subsequently incubated for 24 h. After incubation, drug compounds were dissolved in the culture media and placed in 96 well plates in triplicates, which were again incubated at 37°C under 5% CO2 for 72 h. 72 h later, the plates were removed and the cells were treated with cold Trichloroacetic acid (TCA) to fix the cultures and. […] Thereafter, absorbance of the solution was measured at 540 nm utilizing a microplate reader. Absorbance readings (triplicate values) recorded were used to calculate percentage growth inhibition due to the effect of drugs using the following equations.
% Cell growth = Absorbance sample/Absorbance of control or untreated × 100 […]
The IC50 was calculated based on the log graph sheet which was developed in-house at the CCA, VU University Medical Center. […]

[2] = test system: U-87 (Uppsala 87) Glioma cell lines; experiment: Sulforhodamine B assay, U-87 drug sensitive Glioma cells; format: cell-based
Procedure: as §1, §2
(§3) Glioma cells were cultured in Gibco (RPMI 1640) complemented with 10% fetal calf serum (Gibco). The cultures were then treated with trypsin-EDTA in order to detach/separate the cells from their culture flasks. The quickly proliferating cells were harvested, counted and plated at suitable concentrations in 96-well microplates. These microplates were subsequently incubated for 24 h. After incubation, drug compounds were dissolved in the culture media and placed in 96 well plates in triplicates, which were again incubated at 37°C under 5% CO2 for 72 h. 72 h later, the plates were removed and the cells were treated with cold Trichloroacetic acid (TCA) to fix the cultures and. 0.4% of SRB dissolved in 1% acetic acid was then added to the culture in order to stain the cells. Next, the bound stain was dissolved in 150 μl of 10 mM unbuffered Tris base left on a gyrator shaker. Thereafter, absorbance of the solution was measured at 540 nm utilizing a microplate reader. Absorbance readings (triplicate values) recorded were used to calculate percentage growth inhibition due to the effect of drugs using the following equations.
(§4) % Cell growth = Absorbance sample/Absorbance of control or untreated × 100
(§5) % Growth inhibition = 100 - % cell growth
(§6) The IC50 was calculated based on the log graph sheet which was developed in-house at the CCA, VU University Medical Center.
(§7) Selectivity Index (SI) is a ratio that measures the window between cytotoxicity and anticancer activity of the drugs ([26]). […] Here, IC50 is the inhibition concentration for inhibiting 50% of cancer cells and CC50 is cytotoxic concentration causing death of 50% viable cells in the host.

[3] = design: method as in PMID 18971416; details: equation proposed by Levin-log permeability; cited from earlier work
[4] = test system: Glioma; design: method as in PMID 19046047; details: administered along with surgery and radiotherapy; cited from earlier work
[5] = test system: Drug resistant cancer cells (CR), T-98; experiment: Mathematical tumor growth model simulation and Bliss synergy, drug resistant cancer cells
[6] = test system: T-98 (Temozolomide resistant) Glioma cell lines; experiment: Sulforhodamine B assay, T-98 TMZ resistant Glioma cells; format: cell-based; details: for IC50: Glioma cell
Procedure: as §1, §2, §3, §4, §5, §6, §7

[7] = design: method as in PMID 20925470; details: high doses; cited from earlier work
[8] = SI = CC50 of Vero cell line /IC50 of Cancer cell line after 72 h

- IC50 ([2]; U87WT, 72 h, SRB, Mean ± Standard Deviations in Table 4, read-out: U-87/WT IC50): 23.3 ± 7.57 µM
- Fold change = final IC50/initial IC50 ([5]; combination TMZ + AC2): 0.19
- Fold change = final IC50/initial IC50 ([5]; combination TMZ + AC7): 0.24
- Fold change = final IC50/initial IC50 ([5]; combination TMZ + AC26): 0.54
- IC50 ([6]; 72 h, SRB, Mean ± Standard Deviations in Table 4, read-out: T-98/TMZRES IC50): > 100 µM
- IC50 ([6]; drug administered individually, drug resistant cells, read-out: Initial IC50): 190 µM
SMILES: Cn1nnc2c(C(N)=O)ncn2c1=O [TMZ, 3-Methyl-4-oxo-3,4-dihydroimidazo[5,1-d][1,2,3,5]tetrazine-8-carboxamide]
- CC50 at 72 h [1]: 482 µM
- U-87/WT SI [2, 8]: 20.66
- Relative growth, experimental data for U-87 cell line ([2]; TMZ dose 0.5): 98.47%
- Relative growth, experimental data for U-87 cell line ([2]; TMZ dose 1): 97.76%
- Relative growth, experimental data for U-87 cell line ([2]; TMZ dose 2.5): 97%
- Relative growth, experimental data for U-87 cell line ([2]; TMZ dose 5): 94.93%
- Relative growth, experimental data for U-87 cell line ([2]; TMZ dose 10): 87.32%
- Relative growth, experimental data for U-87 cell line ([2]; TMZ dose 25): 50.41%
- Relative growth, experimental data for U-87 cell line ([2]; TMZ dose 50): 47.71%
- Relative growth, experimental data for U-87 cell line ([2]; TMZ dose 100): 40.87%
- brain capillary permeability [3]: ~2.7 ×10⁻⁶ cm/s
- increase of survival advantage [4]: 2.5 times
- % fold change [(final-initial)/initial]*100 ([5]; combination TMZ + AC2): 80.8%
- % fold change [(final-initial)/initial]*100 ([5]; combination TMZ + AC7): 75.68%
- T-98/TMZRES SI [6, 8]: 2.53
- Relative growth, experimental data for T-98 cell line ([6]; TMZ dose 0.5): 98.26%
- Relative growth, experimental data for T-98 cell line ([6]; TMZ dose 1): 97.74%
- Relative growth, experimental data for T-98 cell line ([6]; TMZ dose 2.5): 96.65%
- Relative growth, experimental data for T-98 cell line ([6]; TMZ dose 5): 95%
- Relative growth, experimental data for T-98 cell line ([6]; TMZ dose 10): 87.43%
- Relative growth, experimental data for T-98 cell line ([6]; TMZ dose 25): 61.98%
- Relative growth, experimental data for T-98 cell line ([6]; TMZ dose 50): 52.77%
- Relative growth, experimental data for T-98 cell line ([6]; TMZ dose 100): 50.87%
- dose leading to severe toxicity [7]: more than 250 μM
